# Reference: PMC11965454, “Simultaneous determination of lesinurad and co-administered drugs used in management of gout comorbidities to uncover potential pharmacokinetic interaction in rat plasma” (Scientific Reports, 2025)
# Like-named read-outs stand apart in the source and are kept apart here.
# What was measured:
# [1] = Stock solution stability (methanol), HPLC-DAD; assay type: physicochemical; conditions: stock solution in methanol, n = 3; for recovery at 6 h, 1000 ng/ml / recovery at 6 h, 10000 ng/ml / recovery at 6 h, 25000 ng/ml: 6 h at room temperature, read-out: Stock solution stability (room temp.) Recovery%; for recovery at 30 days, 1000 ng/ml / recovery at 30 days, 10000 ng/ml / recovery at 30 days, 25000 ng/ml: 30 days at 4 °C; for recovery at 6 h, 10000 ng/ml / recovery at 30 days, 10000 ng/ml: 10,000 ng/ml; for recovery at 6 h, 25000 ng/ml / recovery at 30 days, 25000 ng/ml: 25,000 ng/ml
# [2] = Stability of the studied drugs in rat plasma (freeze-thaw, bench-top, long-term), HPLC-DAD; assay type: in vitro ADME; conditions: n = 3; for recovery at 6 h, 1000 ng/ml / recovery at 35 days, 1000 ng/ml / recovery at 1000 ng/ml: rat plasma; for recovery at 6 h, 1000 ng/ml / recovery at 6 h, 10000 ng/ml / recovery at 6 h, 25000 ng/ml: 6 h at room temperature; for recovery at 35 days, 1000 ng/ml / recovery at 35 days, 10000 ng/ml / recovery at 35 days, 25000 ng/ml: 35 days at -20 °C; for recovery at 1000 ng/ml / recovery at 10000 ng/ml / recovery at 25000 ng/ml: three cycles -20 °C / room temperature; for recovery at 6 h, 10000 ng/ml / recovery at 35 days, 10000 ng/ml / recovery at 10000 ng/ml: rat plasma, 10,000 ng/ml; for recovery at 6 h, 25000 ng/ml / recovery at 35 days, 25000 ng/ml / recovery at 25000 ng/ml: rat plasma, 25,000 ng/ml
# Method: Stability studies were conducted by preparing low, medium and high plasma QC samples in triplicates under different conditions and comparing them with freshly prepared quality control samples. Namely, three freeze-thaw cycles (freeze at -20 °C then thaw at room temperature for three cycles), bench-top stability testing for 6 h at room temperature and long-term stability testing for 35 days at -20 °C.
# [3] = Drug interaction pharmacokinetic study of LES and ETC, single oral dose, plasma levels by HPLC-DAD; assay type: in vivo, Sprague-Dawley rats; conditions: for k el: read-out: Ke (converted); for AUC: n=5; for Change of Ke: after repeated administration of the other drug vs alone; for Change of area under the curve (AUC): single oral dose following the repeated administration of the other drug vs alone
# Source text: The HPLC-DAD system consisted of Agilent 1200 series (auto-injector, quaternary pump, vacuum degasser and diode array and multiple wavelength detector G1315 C/D and G1365 C/D) connected to a computer loaded with Agilent ChemStation Software (Agilent Technologies, Santa Clara, CA, USA). […] The chromatographic separation was achieved using a Zorbax Eclipse Plus C18 (4.6 × 250 mm, 5 μm particle size) column attached to Zorbax Eclipse Plus C18 (4.6 × 12.5 mm, 5 μm particle size) analytical guard column (Agilent Technologies, Santa Clara, CA, USA). The gradient elution was composed of the mobile phase: acetonitrile and 0.05 M potassium dihydrogen orthophosphate eluted in the ratios and at flow rates listed in Table 1 using an injection volume of 50 µL. All determinations were performed at 25 °C. All pH measurements were made using a Hanna pH meter, (RI, USA). Calibration was done using standard buffers of pH 4 and 7 at room temperature.
# The internal standard DIC (0.05 mL) was added to each 0.2 mL rat plasma sample. To the rat plasma sample, 0.6 mL of acetonitrile were added. In order to equalize the final volumes in both; the standard calibration curve samples and the rat plasma samples, up to 1 mL of methanol were added. The samples were covered, vortexed for 1 min at high speed followed by centrifugation for 10 min at ~ 2500 × g. The organic layer was transferred to HPLC autosampler vials. For each sample, 50 µL were directly injected into the HPLC system.
# The animal study has been designed and the results have been reported in accordance with the ARRIVE Guidelines. All animal experiments were conducted according to an experimental protocol approved by the Institutional Animal Care and Use Committee at Alexandria University (Serial Number 135) and in compliance with the Guide for the Care and Use of Laboratory Animals of the Institute for Laboratory Animal Research of the National Academy of Sciences, U.S.A. Animals were obtained from the animal facility at the Research and Innovation Hub at Alamein International University. Single dose pharmacokinetics of LES and ETC, as well as the effect of repeated administration of one on the PK parameters of the other reflecting the PK interactions if any, were assessed as described in our previous work[33]. Since the parameters of the oral pharmacokinetic investigation in experimental animals, in terms of feeding and fasting durations, oral dosing timing and volumes, blood sampling, as well as time intervals of redosing, can be controlled with relative ease, rat group sizes of 5–6 were sufficient for the detection of statistical difference in previous studies carried out in our laboratory[34],[35], and in other groups[36],[37], including studies that looked into the pharmacokinetics of ETC and LES[27],[38]. As will be seen below, the experiment was designed for paired comparison with before and ater measurements from the same rats, further increasing the power for statistical analysis. As such, ten healthy adult male Sprague-Dawley rats (8 weeks of age, ~ 250 g weight) were randomized into two groups of five rats each: LES PK group and ETC PK group. No criteria were set for animal allocation per group. Rats were housed in polycarbonate cages on wood shavings bedding at the animal facility at Alamein International University under controlled temperature (23 °C) and humidity (45%) and a 12-hour dark/light cycle. Rats were given ad libitum access to drinking water and commercial rodent chow (21% protein, Al-Fajr Animal Feed, Beheira, Egypt) prior to and during the experiment. The PK parameters of single doses of each drug were determined at baseline in the respective group and once more after seven days of administration of the other drug, without a washout period. To elaborate, on Day 0, following twelve hours of fasting, rats in each group received a single dose of the respective drug by oral gavage (15 mg/Kg for LES[27], and 5 mg/Kg for ETC[39]). […]
# plasma albumin = conditions: cited from earlier work
# [4] = male, Sprague-Dawley, plasma, LES 15 mg/Kg single oral dose alone (Day 0), rat, Mean ± SEM
# [5] = male, Sprague-Dawley, ETC 5 mg/Kg single oral dose alone (Day 0), rat plasma, Mean ± SEM
SMILES,"recovery at 6 h, 1000 ng/ml [1] [%]","recovery at 30 days, 1000 ng/ml [1] [%]","recovery at 6 h, 10000 ng/ml [1] [%]","recovery at 30 days, 10000 ng/ml [1] [%]","recovery at 6 h, 25000 ng/ml [1] [%]","recovery at 30 days, 25000 ng/ml [1] [%]","recovery at 6 h, 1000 ng/ml [2] [%]","recovery at 35 days, 1000 ng/ml [2] [%]",recovery at 1000 ng/ml [2] [%],"recovery at 6 h, 10000 ng/ml [2] [%]","recovery at 35 days, 10000 ng/ml [2] [%]",recovery at 10000 ng/ml [2] [%],"recovery at 6 h, 25000 ng/ml [2] [%]","recovery at 35 days, 25000 ng/ml [2] [%]",recovery at 25000 ng/ml [2] [%],Change of Ke ([3]; rat),Change of area under the curve (AUC) ([3]; rat),further results
"COC(=O)[C@@H]1CC2=CC(=O)CC[C@]2(C)[C@@]23O[C@@H]2C[C@@]2(C)[C@@H](CC[C@@]24CCC(=O)O4)[C@H]13 [EPL, eplerenone]",101,102,102,97.9,102,98.9,105,104,91.9,96.8,97.6,94.3,94.2,92.6,103,,,
"O=C(O)CSc1nnc(Br)n1-c1ccc(C2CC2)c2ccccc12 [LES, lesinurad]",97.3,98.7,96.5,97.2,94.8,99.2,92.5,93.8,91.6,92.5,94.7,93.8,96.1,94.6,92.7,neither t1/2 nor Ke changed,increased,"Tmax ([3]; LES 15 mg/Kg single oral dose alone (Day 0), rat): 2 h; Ka ([3]; LES 15 mg/Kg single oral dose alone (Day 0), rat, Mean ± SEM): 3.32 ± 0.78 h⁻¹; half-life [3, 4]: 3.96 ± 1.07 h; k el [3, 4]: 7.78e-05 s⁻¹; AUC ([3]; male, Sprague-Dawley, LES 15 mg/Kg single oral dose alone (Day 0), rat plasma, Mean ± SEM): 9600 ± 1890 ng·h/mL; Change of Cmax ([3]; rat, LES after repeated ETC administration vs alone): sharp increase in Cmax; Binding to plasma albumin (plasma albumin; ref PMID: 31191704): extensively bound to plasma albumin"
"Cc1ccc(-c2ncc(Cl)cc2-c2ccc(S(C)(=O)=O)cc2)cn1 [ETC, etoricoxib]",99.5,98.3,99.5,96.4,98.8,99.2,97.5,95.8,98,92.8,94.1,95.3,92.7,90.4,96.5,neither t1/2 nor Ke changed,increased,"Ka ([3]; ETC 5 mg/Kg single oral dose alone (Day 0), rat, method of residuals, Mean ± SEM): 1.82 ± 0.55 h⁻¹; k el ([3]; male, Sprague-Dawley, plasma, ETC 5 mg/Kg single oral dose alone (Day 0), rat, Mean ± SEM): 4.17e-05 s⁻¹; half-life ([3]; male, Sprague-Dawley, plasma, ETC 5 mg/Kg single oral dose alone (Day 0), rat, one phase decay, Mean ± SEM): 4.88 ± 0.56 h; Tmax ([3]; male, Sprague-Dawley, plasma, ETC 5 mg/Kg single oral dose alone (Day 0), rat, read-out: Tmax): 1 h; Cmax [3, 5]: 1170 ± 148 ng/mL; AUC [3, 5]: 11200 ng·h/mL; Change of absorption rate constant (Ka) ([3]; rat, ETC in the continued presence of LES vs alone): increased Ka; Binding to plasma albumin (plasma albumin; ref PMID: 18840026): extensively bound to plasma albumin"
